# According to patent US8697641B2, “4-amino-4-oxobutanoyl peptide cyclic analogues, inhibitors of viral replication” (Achillion Pharmaceuticals, Inc., priority 2008, dated 2014):
# Test system: Hepatitis C replicon
# Assay: HCV replicon assay (NPT ELISA readout) in Huh-7 replicon-containing cells
# Format: cell-based, Hepatitis C virus
# Details: Hepatitis C virus, 72 h; HCV replicon in Huh-7 cells, three days incubation
# How it was run: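 Replication is measured as neomycin phosphotransferase level by captured ELISA after three days of compound exposure (typically 10 to 0.03 μM, 6 concentrations) at 37 °C. Cells are Huh-7 harbouring an HCV replicon with neo gene and NS3-NS5B; interferon alpha is the positive control.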
row,Compound,EC50
1,"COc1ccc2c(O[C@@H]3C[C@H]4C(=O)N[C@]5(C(=O)NS(=O)(=O)C6CC6)C[C@H]5/C=C\CCCCC[C@H](CC(=O)N5CCCCC5)C(=O)N4C3)cc(-c3ccccn3)nc2c1C [Compound 116, (2R,6R,14aR,16aS,Z)-N-(cyclopropylsulfonyl)-2-(7-methoxy-8-methyl-2-(pyridin-2-yl)quinolin-4-yloxy)-5, 16-dioxo-6-(2-oxo-2-(piperidin-1-yl)ethyl)-1,2,3,5,6,7,8,9,10,11, 13a,14,14a,15,16,16a-hexadecahydrocyclopropa [e]pyrrolo[1,2-a][1,4] diazacyclopentadecine-14a-carboxamide]",< 1 µM
2,"COc1ccc2c(O[C@@H]3C[C@H]4C(=O)N[C@]5(C(=O)NS(=O)(=O)C6CC6)C[C@H]5/C=C\CCCCC[C@H](CC(=O)N5CC[C@H](N)C5)C(=O)N4C3)cc(-c3ccccc3)nc2c1 [Compound 102, (2R,6R,14aR,16aS, Z)-6-(2-((S)-3-aminopyrrolidin-1-yl)-2-oxoethyl)-N-(cyclopropylsulfonyl)-2-(7-methoxy-2-phenylquinolin-4-yloxy)-5,16-dioxo-1,2,3,5,6,7,8,9,10,11, 13a,14,14a,15,16,16a-hexadecahydrocyclopropa [e]pyrrolo[1,2-a][1,4] diazacyclopentadecine-14a-carboxamide]",< 1 µM
3,"COc1ccc2c(O[C@@H]3C[C@H]4C(=O)N[C@]5(C(=O)NS(=O)(=O)C6CC6)C[C@H]5/C=C\CCCCC[C@H](CC(=O)N5CC[C@H](C(C)(C)N)C5)C(=O)N4C3)cc(-c3ccccc3)nc2c1 [Compound 111, (2R,6R,14aR,16aS,Z)-6-(2-((S)-3-(2-aminopropan-2-yl)pyrrolidin-1-yl)-2-oxoethyl)-N-(cyclopropylsulfonyl)-2-(7-methoxy-2-phenylquinolin-4-yloxy)-5,16-dioxo-1,2,3,5,6,7,8,9,10,11, 13a,14,14a,15,16,16a-hexadecahydrocyclopropa [e]pyrrolo[1,2-a][1,4] diazacyclopentadecine-14a-carboxamide]",< 1 µM
4,"COc1ccc2c(O[C@@H]3C[C@H]4C(=O)N[C@]5(C(=O)NS(=O)(=O)C6CC6)C[C@H]5/C=C\CCCCC[C@H](CC(=O)O)C(=O)N4C3)cc(-c3ccccc3)nc2c1 [Compound 59, 2-((2R,6R,13aS, 14aR,16aS,Z)-14a-(cyclopropylsulfonyl-carbamoyl)-2-(7-methoxy-2-phenylquinolin-4-yloxy)-5,16-dioxo-1,2,3,5,6,7,8,9,10,11, 13a,14,14a,15,16,16a-hexadecahydrocyclopropa [e]pyrrolo[1,2-a][1,4]diazacyclopentadecin-6-yl)acetic acid]",< 1 µM
5,"COc1ccc2c(O[C@@H]3C[C@H]4C(=O)N[C@]5(C(=O)NS(=O)(=O)C6CC6)C[C@H]5/C=C\CCCCC[C@H](CC(=O)N5CCCC(C(F)(F)F)C5)C(=O)N4C3)cc(-c3ccccc3)nc2c1 (stereo partly drawn) [Compound 71, (2R,6R,13aS, 14aR,16aS,Z)-N-(cyclopropylsulfonyl)-2-(7-methoxy-2-phenylquinolin-4-yloxy)-5,16-dioxo-6-(2-oxo-2-(3-(trifluoromethyl)piperidin-1-yl)ethyl)-1,2,3,5,6,7,8,9,10,11, 13a,14,14a,15,16,16a-hexadecahydrocyclopropa [e]pyrrolo[1,2-a][1,4] diazacyclopentadecine-14a-carboxamide]",< 1 µM
6,"COc1ccc2c(O[C@@H]3C[C@H]4C(=O)N[C@]5(C(=O)NS(=O)(=O)C6CC6)C[C@H]5/C=C\CCCCC[C@H](CC(=O)N5CCC(C(F)(F)F)CC5)C(=O)N4C3)cc(-c3ccccc3)nc2c1 [Compound 62, (2R,6R,13aS, 14aR,16aS,Z)-N-(cyclopropylsulfonyl)-2-(7-methoxy-2-phenylquinolin-4-yloxy)-5,16-dioxo-6-(2-oxo-2-(4-(trifluoromethyl)piperidin-1-yl)ethyl)-1,2,3,5,6,7,8,9,10,11, 13a,14,14a,15,16,16a-hexadecahydrocyclopropa [e]pyrrolo[1,2-a][1,4] diazacyclopentadecine-14a-carboxamide]",< 1 µM
7,"O=C1N[C@]2(C(=O)NS(=O)(=O)C3CC3)C[C@H]2/C=C\CCCCC[C@H](CC(=O)N2CCCC(F)(F)C2)C(=O)N2C[C@H](Oc3cc(-c4ccccn4)nc4c5c(ccc34)CCC5)C[C@@H]12 [Compound 127, (2R,6R,13aS,16aS,Z)-N-(cyclopropylsulfonyl)-6-(2-(3,3-difluoropiperidin-1-yl)-2-oxoethyl)-5,16-dioxo-2-(2-(pyridin-2-yl)-8,9-dihydro-7H-cyclopenta[h]quinolin-4-yloxy)-1,2,3,5,6,7,8,9,10,11, 13a,14,14a,15,16,16a-hexadecahydrocyclopropa [e]pyrrolo[1,2-a][1,4] diazacyclopentadecine-14a-carboxamide]",> 10 µM
8,"COc1ccc2c(O[C@@H]3C[C@H]4C(=O)N[C@]5(C(=O)NS(=O)(=O)C6CC6)C[C@H]5/C=C\CCCCC[C@H](CC(=O)N5CC(C)CC(C)C5)C(=O)N4C3)cc(-c3ccccc3)nc2c1 (stereo partly drawn) [Compound 68, (2R,6R,13aS, 14aR,16aS,Z)-N-(cyclopropylsulfonyl)-6-(2-(3,5-dimethylpiperidin-1-yl)-2-oxoethyl)-2-(7-methoxy-2-phenylquinolin-4-yloxy)-5,16-dioxo-1,2,3,5,6,7,8,9,10,11, 13a,14,14a,15,16,16a-hexadecahydrocyclopropa [e]pyrrolo[1,2-a][1,4] diazacyclopentadecine-14a-carboxamide]",< 1 µM
9,"COc1ccc2c(O[C@@H]3C[C@H]4C(=O)N[C@@](C)(C(=O)NS(=O)(=O)C5CC5)C/C=C\CCCCC[C@H](CC(=O)N5CCCCC5)C(=O)N4C3)cc(-c3ccccc3)nc2c1 [Compound 65, (3R,12R,16R,17aS,Z)-N-(cyclopropylsulfonyl)-16-(7-methoxy-2-phenylquinolin-4-yloxy)-3-methyl-1,13-dioxo-12-(2-oxo-2-(piperidin-1-yl)ethyl)-2,3,4,7,8,9,10, 11,12,13,15,16,17,17a-tetradecahydro-1H-pyrrolo[1,2-a][1,4] diazacyclopentadecine-3-carboxamide]",1 to 10 µM
10,"COc1ccc2c(O[C@@H]3C[C@H]4C(=O)N[C@]5(C(=O)NS(=O)(=O)C6CC6)C[C@H]5/C=C\CCCCC[C@H](CC(=O)OC(C)(C)C)C(=O)N4C3)cc(-c3ccccn3)nc2c1Cl [Compound 88, tert-butyl 2-((2R,6R,14aR, 16aS,Z)-2-(8-chloro-7-methoxy-2-(pyridin-2-yl)quinolin-4-yloxy)-14a-(cyclopropylsulfonyl-carbamoyl)-5,16-dioxo-1,2,3,5,6,7,8,9,10,11, 13a,14,14a,15,16,16a-hexadecahydrocyclopropa [e]pyrrolo[1,2-a][1,4]diazacyclopentadecin-6-yl)acetate]",< 1 µM
11,"O=C1N[C@]2(C(=O)NS(=O)(=O)C3CC3)C[C@H]2/C=C\CCCCC[C@H](CC(=O)N2CCCCC2)C(=O)N2C[C@H](OC(=O)N3CCc4ccccc4C3)C[C@@H]12 [Compound 112, (2R,6R,14aR, 16aS,Z)-14a-(cyclopropylsulfonyl-carbamoyl)-5,16-dioxo-6-(2-oxo-2-(piperidin-1-yl)ethyl)-1,2,3,5,6,7,8,9,10,11, 13a,14,14a,15,16,16a-hexadecahydrocyclopropa [e]pyrrolo[1,2-a][1,4] diazacyclopentadecin-2-yl 3,4-dihydroisoquinoline-2(1H)-carboxylate]",< 1 µM
